# In publication PMC11637483, “Dissecting caspase-2-mediated cell death: from intrinsic PIDDosome activation to chemical modulation” (Protein & Cell, 2024):
# Tested on: HeLa-CASP2/CASP3/GSDMD TKO + CASP2 cells (human caspase-2)
# Assay: ATP-based cell viability (CellTiter-Glo) in HeLa TKO cells with exogenous caspase-2 expression
# Conditions: immunoblotting, HUHS015-treated cells
# Source text: Specific chemical compounds are powerful tools for dissecting target-related signaling mechanisms in biological contexts ([Beck et al., 2022]; [Zhang et al., 2012]). Prompted by this notion and possibly to identify a compound that could activate the PIDDosome, we designed a cell death-based high-throughput chemical screen in HeLa cells, in which a triple knockout of CASP2, CASP3, and GSDMD were constructed. CASP3 and GSDMD deficiency served as the background to minimize compound-induced nonspecific cytotoxicity and undesired pyroptosis. Using the triple knockout cells as the control, additional expression of exogenous caspase-2 allows the identification of compounds that can specifically activate the caspase-2-BID pathway and trigger apoptosis through caspase-7. […] In accordance with the apoptosis induction, HUHS015 induced evident processing of caspase-2 expressed in the triple-knockout cells (Fig. 3B). This indicated activation of caspase-2 as the protease-deficient C320A mutant of caspase-2 was not processed upon HUHS015 treatment (Fig. 3B). Accordingly, expression of caspase-2 C320A rendered no cell death in response to HUHS015 treatment (Fig. 3B).
# Figure 3. Chemical screen identifies HUHS015 as an agonist of human caspase-2. (A) Screen raw data and selectivity analyses of the compound plate containing HUHS015. The ATP-based viability data of both HeLa-CASP2^−/−CASP3^−/−GSDMD^−/− (TKO) (control group) and TKO cells with exogenous caspase-2 expression (experimental group) are shown. The ratios of the cell viability between the two groups are calculated with 3 as a cutoff for positive compound hit selection. (B) HUHS015-induced cell death depends on caspase-2 activity. HeLa TKO cells expressing WT or enzymatically deficient C320A mutant of caspase-2 were treated with HUHS015. ATP-based cell viability and immunoblotting of caspase-2 cleavage are shown. (C and F) The structures and potencies of HUHS15 (C) and its optimized derivative HUHS15-036 (F). HeLa TKO cells with exogenous caspase-2 expression were treated with titrated compounds. The ATP-based viability data were plotted with compound concentration for EC50 calculation. (D) BID is required for HUHS15-induced caspase-2-dependent cell death. […] Processing of caspase-2, -3, and -7 was analyzed by immunoblotting. […] ATP-based cell viability in panels (B and D) is expressed as mean ± s.d. from three technical replicates. […]
# Cell viability was measured by the ATP assay using the CellTiter-Glo® Luminescent Cell Viability Assay kit (Promega).
# Drug-related Screening Library (25 × 384-well plate, more than 7,000 compounds) was used for the chemical screen in the TKO HeLa cells rescued with exogenous caspase-2 expression. […] After treatment for 12 h, the cell viability was measured by the ATP assay. […]
substance,measurement,value
zVAD [reference compound],block of HUHS015-induced caspase-2 processing,not blocked
